# Source: publication PMC5666424, “Marine-Derived 2-Aminoimidazolone Alkaloids. Leucettamine B-Related Polyandrocarpamines Inhibit Mammalian and Protozoan DYRK & CLK Kinases” (Marine Drugs, 2017)
# How the values were obtained:
# Assay in all cases: KinomeScan
# Format in all cases: binding
# Conditions in all cases: 1 μM
# STK35 = biological target: T1, STK35 (Homo sapiens, UniProt Q8TDR2)
# T1 construct: purchased DiscoverX (KINOMEscan)
# MLK1 = biological target: T2, MLK1 (Homo sapiens, UniProt P80192)
# T2 construct: purchased DiscoverX (KINOMEscan)
# [1] = biological target: T3, JAK1(JH1domain-catalytic) (Homo sapiens, UniProt P23458)
# T3 construct: JAK1(JH1domain-catalytic); purchased DiscoverX (KINOMEscan)
# DYRK1A = DYRK1A (Homo sapiens, UniProt Q13627)
# MEK3 = biological target: T4, MEK3 (Homo sapiens, UniProt P46734)
# T4 construct: purchased DiscoverX (KINOMEscan)
# CDC2L1 = biological target: T5, CDC2L1 (Homo sapiens, UniProt P21127)
# T5 construct: purchased DiscoverX (KINOMEscan)
# MKNK2 = biological target: T6, MKNK2 (Homo sapiens, UniProt Q9HBH9)
# T6 construct: purchased DiscoverX (KINOMEscan)
# ACVRL1 = biological target: T7, ACVRL1 (Homo sapiens, UniProt P37023)
# T7 construct: purchased DiscoverX (KINOMEscan)
# EGFR(G719C) = biological target: T8, EGFR(G719C) (Homo sapiens, UniProt P00533, G719C)
# T8 construct: purchased DiscoverX (KINOMEscan)
# BRSK2 = biological target: T9, BRSK2 (Homo sapiens, UniProt Q8IWQ3)
# T9 construct: purchased DiscoverX (KINOMEscan)
# JNK2 = biological target: T10, JNK2 (Homo sapiens, UniProt P45984)
# T10 construct: purchased DiscoverX (KINOMEscan)
# [2] = biological target: T11, TYK2(JH2domain-pseudokinase) (Homo sapiens, UniProt P29597)
# T11 construct: TYK2(JH2domain-pseudokinase); purchased DiscoverX (KINOMEscan)
# STK16 = biological target: T12, STK16 (Homo sapiens, UniProt O75716)
# T12 construct: purchased DiscoverX (KINOMEscan)
# CAMK1G = biological target: T13, CAMK1G (Homo sapiens, UniProt Q96NX5)
# T13 construct: purchased DiscoverX (KINOMEscan)
# ERK8 = biological target: T14, ERK8 (Homo sapiens, UniProt Q8TD08)
# T14 construct: purchased DiscoverX (KINOMEscan)
# TNIK = biological target: T15, TNIK (Homo sapiens, UniProt Q9UKE5)
# T15 construct: purchased DiscoverX (KINOMEscan)
# SIK = biological target: T16, SIK (Homo sapiens, UniProt P57059)
# T16 construct: purchased DiscoverX (KINOMEscan)
# FLT4 = biological target: T17, FLT4 (Homo sapiens, UniProt P35916)
# T17 construct: purchased DiscoverX (KINOMEscan)
# NEK3 = biological target: T18, NEK3 (Homo sapiens, UniProt P51956)
# T18 construct: purchased DiscoverX (KINOMEscan)
# LZK = biological target: T19, LZK (Homo sapiens, UniProt O43283)
# T19 construct: purchased DiscoverX (KINOMEscan)
# YANK1 = biological target: T20, YANK1 (Homo sapiens, UniProt Q8WU08)
# T20 construct: purchased DiscoverX (KINOMEscan)
# CAMK4 = biological target: T21, CAMK4 (Homo sapiens, UniProt Q16566)
# T21 construct: purchased DiscoverX (KINOMEscan)
# MAP3K1 = biological target: T22, MAP3K1 (Homo sapiens, UniProt Q13233)
# T22 construct: purchased DiscoverX (KINOMEscan)
# BRK = biological target: T23, BRK (Homo sapiens, UniProt Q13882)
# T23 construct: purchased DiscoverX (KINOMEscan)
# DDR1 = biological target: T24, DDR1 (Homo sapiens, UniProt Q08345)
# T24 construct: purchased DiscoverX (KINOMEscan)
# CSNK1A1L = biological target: T25, CSNK1A1L (Homo sapiens, UniProt Q8N752)
# T25 construct: purchased DiscoverX (KINOMEscan)
# CDKL5 = biological target: T26, CDKL5 (Homo sapiens, UniProt O76039)
# T26 construct: purchased DiscoverX (KINOMEscan)
# MYO3B = biological target: T27, MYO3B (Homo sapiens, UniProt Q8WXR4)
# T27 construct: purchased DiscoverX (KINOMEscan)
# GSK3B = biological target: T28, GSK3B (Homo sapiens, UniProt P49841)
# T28 construct: purchased DiscoverX (KINOMEscan)
# YANK2 = biological target: T29, YANK2 (Homo sapiens, UniProt Q9NY57)
# T29 construct: purchased DiscoverX (KINOMEscan)
# EPHA6 = biological target: T30, EPHA6 (Homo sapiens, UniProt Q9UF33)
# T30 construct: purchased DiscoverX (KINOMEscan)
# BMPR1B = biological target: T31, BMPR1B (Homo sapiens, UniProt O00238)
# T31 construct: purchased DiscoverX (KINOMEscan)
# DAPK2 = biological target: T32, DAPK2 (Homo sapiens, UniProt Q9UIK4)
# T32 construct: purchased DiscoverX (KINOMEscan)
# CAMK2G = biological target: T33, CAMK2G (Homo sapiens, UniProt Q13555)
# T33 construct: purchased DiscoverX (KINOMEscan)
# TRKB = biological target: T34, TRKB (Homo sapiens, UniProt Q16620)
# T34 construct: purchased DiscoverX (KINOMEscan)
# ADCK3 = biological target: T35, ADCK3 (Homo sapiens, UniProt Q8NI60)
# T35 construct: purchased DiscoverX (KINOMEscan)
# MEK2 = biological target: T36, MEK2 (Homo sapiens, UniProt P36507)
# T36 construct: purchased DiscoverX (KINOMEscan)
# T23 sequence (Q13882 whole entry): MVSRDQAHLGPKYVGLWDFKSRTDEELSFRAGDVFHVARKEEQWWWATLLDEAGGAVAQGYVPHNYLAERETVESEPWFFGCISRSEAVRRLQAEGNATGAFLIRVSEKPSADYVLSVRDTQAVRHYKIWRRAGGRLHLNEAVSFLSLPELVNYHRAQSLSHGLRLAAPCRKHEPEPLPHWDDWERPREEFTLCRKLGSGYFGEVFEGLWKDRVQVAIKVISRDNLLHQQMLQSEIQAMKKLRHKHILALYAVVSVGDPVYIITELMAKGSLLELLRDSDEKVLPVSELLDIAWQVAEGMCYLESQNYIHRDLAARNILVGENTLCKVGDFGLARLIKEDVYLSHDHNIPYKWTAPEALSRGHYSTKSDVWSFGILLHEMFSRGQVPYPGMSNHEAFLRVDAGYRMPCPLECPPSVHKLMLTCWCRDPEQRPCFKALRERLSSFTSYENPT
# T6 sequence (Q9HBH9 whole entry): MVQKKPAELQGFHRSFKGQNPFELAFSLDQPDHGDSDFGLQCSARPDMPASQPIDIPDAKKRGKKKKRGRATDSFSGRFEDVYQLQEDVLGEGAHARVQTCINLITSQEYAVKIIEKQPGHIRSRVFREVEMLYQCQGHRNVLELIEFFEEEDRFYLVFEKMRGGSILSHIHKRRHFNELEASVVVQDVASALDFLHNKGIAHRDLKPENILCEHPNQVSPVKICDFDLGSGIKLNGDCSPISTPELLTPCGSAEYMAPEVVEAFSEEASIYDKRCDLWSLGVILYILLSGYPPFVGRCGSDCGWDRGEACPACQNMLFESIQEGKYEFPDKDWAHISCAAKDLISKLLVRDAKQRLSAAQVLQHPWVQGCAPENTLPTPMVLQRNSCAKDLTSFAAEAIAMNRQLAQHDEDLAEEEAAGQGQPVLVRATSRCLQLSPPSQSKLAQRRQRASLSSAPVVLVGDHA
# T1 sequence (Q8TDR2 whole entry): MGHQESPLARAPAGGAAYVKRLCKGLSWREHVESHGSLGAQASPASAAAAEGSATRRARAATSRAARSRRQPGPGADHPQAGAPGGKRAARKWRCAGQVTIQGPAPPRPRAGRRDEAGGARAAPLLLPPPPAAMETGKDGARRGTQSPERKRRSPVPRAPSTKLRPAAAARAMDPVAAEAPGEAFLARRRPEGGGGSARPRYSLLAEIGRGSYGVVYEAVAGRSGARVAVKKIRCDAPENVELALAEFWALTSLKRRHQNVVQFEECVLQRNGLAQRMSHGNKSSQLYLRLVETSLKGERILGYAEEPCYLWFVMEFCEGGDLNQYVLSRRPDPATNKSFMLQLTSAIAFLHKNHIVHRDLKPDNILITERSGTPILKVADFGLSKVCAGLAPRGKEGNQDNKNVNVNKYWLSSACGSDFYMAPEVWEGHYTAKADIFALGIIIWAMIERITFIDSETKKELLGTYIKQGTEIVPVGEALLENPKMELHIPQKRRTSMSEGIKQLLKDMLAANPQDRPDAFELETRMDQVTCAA
# T21 sequence (Q16566 whole entry): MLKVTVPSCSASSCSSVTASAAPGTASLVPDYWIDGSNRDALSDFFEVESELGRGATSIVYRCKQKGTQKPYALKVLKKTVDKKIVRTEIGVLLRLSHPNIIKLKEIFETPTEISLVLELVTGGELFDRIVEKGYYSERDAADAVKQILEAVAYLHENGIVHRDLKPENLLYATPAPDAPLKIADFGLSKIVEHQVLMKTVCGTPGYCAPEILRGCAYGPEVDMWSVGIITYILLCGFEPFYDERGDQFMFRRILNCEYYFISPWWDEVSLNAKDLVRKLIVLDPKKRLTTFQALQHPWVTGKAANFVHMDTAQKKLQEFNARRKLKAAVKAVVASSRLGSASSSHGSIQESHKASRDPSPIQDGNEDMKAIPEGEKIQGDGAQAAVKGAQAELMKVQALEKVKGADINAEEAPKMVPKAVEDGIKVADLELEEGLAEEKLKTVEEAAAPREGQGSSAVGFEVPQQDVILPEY
# T34 sequence (Q16620 32-822): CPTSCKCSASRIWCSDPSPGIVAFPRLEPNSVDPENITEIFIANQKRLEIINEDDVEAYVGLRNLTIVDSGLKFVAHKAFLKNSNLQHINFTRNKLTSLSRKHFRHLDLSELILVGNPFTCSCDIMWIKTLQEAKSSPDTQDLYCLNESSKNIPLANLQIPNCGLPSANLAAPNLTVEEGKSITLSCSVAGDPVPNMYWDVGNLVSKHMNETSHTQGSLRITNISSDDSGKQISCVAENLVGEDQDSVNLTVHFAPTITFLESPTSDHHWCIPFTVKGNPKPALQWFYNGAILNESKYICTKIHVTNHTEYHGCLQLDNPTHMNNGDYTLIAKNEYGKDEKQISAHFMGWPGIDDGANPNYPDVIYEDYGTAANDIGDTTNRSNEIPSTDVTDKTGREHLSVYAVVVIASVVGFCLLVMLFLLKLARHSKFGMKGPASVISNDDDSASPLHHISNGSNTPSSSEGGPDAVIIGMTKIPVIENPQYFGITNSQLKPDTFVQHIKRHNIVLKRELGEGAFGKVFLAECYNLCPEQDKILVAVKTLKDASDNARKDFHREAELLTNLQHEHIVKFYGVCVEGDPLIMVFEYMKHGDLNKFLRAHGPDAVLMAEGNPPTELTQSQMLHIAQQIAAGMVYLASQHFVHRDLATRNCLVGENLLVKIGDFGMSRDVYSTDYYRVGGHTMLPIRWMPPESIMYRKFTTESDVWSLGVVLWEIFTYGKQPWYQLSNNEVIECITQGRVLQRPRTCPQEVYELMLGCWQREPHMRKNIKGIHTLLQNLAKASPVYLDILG
# T33 sequence (Q13555 whole entry): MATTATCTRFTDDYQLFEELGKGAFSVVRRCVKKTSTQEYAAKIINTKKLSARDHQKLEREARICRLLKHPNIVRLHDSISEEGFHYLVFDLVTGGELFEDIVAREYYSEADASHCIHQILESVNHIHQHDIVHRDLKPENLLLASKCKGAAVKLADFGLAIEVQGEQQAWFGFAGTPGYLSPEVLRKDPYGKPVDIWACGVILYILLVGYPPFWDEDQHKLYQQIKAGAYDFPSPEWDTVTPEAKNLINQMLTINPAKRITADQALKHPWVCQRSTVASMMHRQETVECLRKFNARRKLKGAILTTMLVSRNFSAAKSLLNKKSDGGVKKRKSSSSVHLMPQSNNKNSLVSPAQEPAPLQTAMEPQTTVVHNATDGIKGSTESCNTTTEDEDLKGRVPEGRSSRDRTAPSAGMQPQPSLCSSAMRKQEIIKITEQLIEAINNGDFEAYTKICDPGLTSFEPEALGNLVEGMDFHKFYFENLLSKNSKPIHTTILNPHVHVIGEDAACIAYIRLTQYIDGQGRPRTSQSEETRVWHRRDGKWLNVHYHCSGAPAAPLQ
# T7 sequence (P37023 22-503): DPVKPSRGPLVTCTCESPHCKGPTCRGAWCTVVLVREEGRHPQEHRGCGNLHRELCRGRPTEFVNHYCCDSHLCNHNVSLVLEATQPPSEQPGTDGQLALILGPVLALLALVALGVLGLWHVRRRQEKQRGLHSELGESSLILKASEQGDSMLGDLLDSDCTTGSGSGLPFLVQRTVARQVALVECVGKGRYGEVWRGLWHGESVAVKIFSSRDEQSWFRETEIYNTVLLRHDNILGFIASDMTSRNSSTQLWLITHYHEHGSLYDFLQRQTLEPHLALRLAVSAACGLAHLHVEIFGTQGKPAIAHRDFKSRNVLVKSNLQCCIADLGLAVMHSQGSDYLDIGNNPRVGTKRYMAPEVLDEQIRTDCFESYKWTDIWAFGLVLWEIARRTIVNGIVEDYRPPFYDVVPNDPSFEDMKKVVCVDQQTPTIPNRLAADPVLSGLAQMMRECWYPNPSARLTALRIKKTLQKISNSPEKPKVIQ
# T28 sequence (P49841 whole entry): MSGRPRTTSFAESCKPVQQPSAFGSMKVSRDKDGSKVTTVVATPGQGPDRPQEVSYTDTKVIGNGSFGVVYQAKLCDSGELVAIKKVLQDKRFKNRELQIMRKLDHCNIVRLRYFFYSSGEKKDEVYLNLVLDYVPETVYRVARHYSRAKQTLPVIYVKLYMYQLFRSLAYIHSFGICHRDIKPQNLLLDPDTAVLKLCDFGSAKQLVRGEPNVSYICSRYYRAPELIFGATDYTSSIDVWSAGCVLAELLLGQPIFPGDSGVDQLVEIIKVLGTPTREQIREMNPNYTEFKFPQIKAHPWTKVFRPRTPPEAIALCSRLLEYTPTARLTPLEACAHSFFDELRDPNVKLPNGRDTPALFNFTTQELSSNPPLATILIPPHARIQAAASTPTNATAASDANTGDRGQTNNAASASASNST
# T3 sequence (P23458 854-1154 limits assumed): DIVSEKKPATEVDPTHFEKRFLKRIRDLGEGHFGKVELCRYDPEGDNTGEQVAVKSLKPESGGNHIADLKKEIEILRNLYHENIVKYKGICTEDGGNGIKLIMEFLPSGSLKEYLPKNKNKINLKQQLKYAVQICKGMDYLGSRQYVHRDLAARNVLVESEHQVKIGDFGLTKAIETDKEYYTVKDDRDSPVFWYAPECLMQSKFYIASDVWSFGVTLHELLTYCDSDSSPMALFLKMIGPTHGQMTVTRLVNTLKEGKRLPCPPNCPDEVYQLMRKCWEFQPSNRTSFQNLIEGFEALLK
# T10 sequence (P45984 whole entry): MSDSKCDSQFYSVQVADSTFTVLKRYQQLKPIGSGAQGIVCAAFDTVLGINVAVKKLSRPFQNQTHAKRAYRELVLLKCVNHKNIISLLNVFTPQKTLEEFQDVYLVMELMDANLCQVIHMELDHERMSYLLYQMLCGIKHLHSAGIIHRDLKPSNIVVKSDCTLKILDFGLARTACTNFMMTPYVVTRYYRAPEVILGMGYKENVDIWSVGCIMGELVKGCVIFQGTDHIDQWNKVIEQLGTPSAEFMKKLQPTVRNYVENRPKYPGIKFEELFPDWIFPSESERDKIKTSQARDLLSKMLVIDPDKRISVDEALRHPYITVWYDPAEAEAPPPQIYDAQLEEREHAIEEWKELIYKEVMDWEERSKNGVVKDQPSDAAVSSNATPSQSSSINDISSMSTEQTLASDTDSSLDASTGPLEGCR
compound,measurement,setting,value
COc1cc(/C=C2\N=C(N)NC2=O)ccc1O [Polyandrocarpamine A],Score,STK35,95
same,Score,MLK1,100
same,Score,[1],72
same,Score,DYRK1A,3
same,Score,MEK3,98
same,Score,CDC2L1,100
same,Score,MKNK2,100
same,Score,ACVRL1,100
same,Score,EGFR(G719C),95
same,Score,BRSK2,100
same,Score,JNK2,100
same,Score,[2],100
same,Score,STK16,100
same,Score,CAMK1G,100
same,Score,ERK8,67
same,Score,TNIK,100
same,Score,SIK,100
same,Score,FLT4,100
same,Score,NEK3,100
same,Score,LZK,100
same,Score,YANK1,100
same,Score,CAMK4,94
same,Score,MAP3K1,100
same,Score,BRK,100
same,Score,DDR1,100
same,Score,CSNK1A1L,100
same,Score,CDKL5,100
same,Score,MYO3B,88
same,Score,GSK3B,100
same,Score,YANK2,94
same,Score,EPHA6,100
same,Score,BMPR1B,42
same,Score,DAPK2,58
same,Score,CAMK2G,99
same,Score,TRKB,100
same,Score,ADCK3,100
same,Score,MEK2,100
